The source of these data is patent US12151018B2 (priority 2019, dated 2024).

In this experiment the test system is Caenorhabditis elegans. The conditions noted are these: in vivo.

Consider argireline, for which the “amount needed alone for the same level of effect as argireline 100 ppm plus Z. piperitum extract 500 ppm” value is reported as 100,000 ppm.
